Reference: patent publication US7807673B2, “2-pyrimidinyl pyrazolopyridine ErbB kinase inhibitors” (GlaxoSmithKline LLC, priority 2005, dated 2010)

Key:
Colo205 tumor cell lines = assay: Celltiter Glo growth inhibition assay (cellular Method B); type: cell-based; details: Homo sapiens, COLO 205, 72 h, Table 3, Method B Celltiter Glo, 3 days
Protocol: (§1) Human breast tumor cells (BT474) were cultured in RPMI, (Invitrogen, 22400) containing 10% fetal bovine serum (FBS). Human head and neck tumor cells (HN5) were cultured in low glucose DMEM (Invitrogen, 12320) containing 10% FBS. Human colon tumor cells (Colo205) were cultured in DMEM (Invitrogen, 10564) containing 10% FBS. All cell lines were maintained at 37° C. in a humidified 5% CO2, 95% air incubator. Cells were harvested using trypsin/EDTA, counted using a haemocytometer, and plated in 30 microliters of the appropriate media described above, at the following densities, in a half area, black-walled, 96-well tissue culture plate (Corning 3882): BT474 3,000 cells/well, HN5 500 cells/well and Colo205 cells, 3,000 cells/well. The next day, compounds were diluted in DMEM containing 100 mg/ml gentamicin, from 10 mM stock solutions in DMSO. 30 microliters/well of these dilutions were added to the 30 microliters/well of media currently on the cell plates. Medium containing 0.6% DMSO was added to control wells. The final concentration of DMSO in all wells was 0.3%. Cells were incubated at 37° C., 5% CO2 for 3 days. Cell biomass was estimated using Celltiter Glo (Promega G7571). Briefly, plates were removed from the incubator and allowed to equilibrate to rt for 30 minutes. 60 microliters of Celltiter Glo reagent were added to each well of the treated cells and plates were shaken on an orbital plate shaker for 2 min. Plates were incubated without shaking for 30 more min and read in a luminometer with an integration time of 0.5 seconds per well. Percent inhibition of cell growth was calculated relative to vehicle treated control wells. Concentration of compound that inhibits 50% of vehicle control cell growth (IC50) was interpolated using nonlinear regression (Levenberg-Marquardt) and the equation, y=Vmax*(1−(x/(K+x)))+Y2, where “K” was equal to the IC50.

[1] = tested on: BT474 and HN5 tumor cell lines; assay: as above; type: cell-based; details: Homo sapiens, BT-474, 72 h; Table 2, Method B Celltiter Glo, 3 days; class over BT474 and HN5;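 further: class counts the more potent of the two cell lines (BT474 or HN5)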
Protocol: as §1

ErbB2 or EGFR = molecular target: T1, ErbB2 or EGFR; assay: ErbB enzyme substrate phosphorylation assay (HTRF), Method B (enzyme pre-incubated with compound 1 hour); type: biochemical; details: Table 1, enzyme Method B: enzyme mix incubated with compound 1 hour at 20° C., reaction started with substrate mix; class over ErbB2 or EGFR
T1 construct: enzymes purified from a baculovirus expression system
Protocol: Compounds of the present invention were tested for EGFR, ErbB-2, and ErbB-4 protein tyrosine kinase inhibitory activity in substrate phosphorylation assays using enzymes purified from a baculovirus expression system. Reagent production was conducted essentially as described in Brignola, P. S., et al, (2002) J. Biol. Chem. 277(2): 1576-1585.
The method measures the ability of the isolated enzyme to catalyse the transfer of the gamma-phosphate from ATP onto the tyrosine residue of a biotinylated synthetic peptide referenced “Peptide C” in Brignola, P. S., et al, (2002) J. Biol. Chem. 277(2):1576-1585. The extent of tyrosine phosphorylation was measured using an anti-phosphotyrosine antibody, and quantified by homogenous time-resolved fluorescence (HTRF).
Reactions were performed in black 384-well polystyrene flat-bottom plates in a final volume of 20 μl. Assays were performed by adding 10 μl of each of the following solutions, substrate Mix and enzyme mix: The Substrate mix contained 100 mM 3-[N-morpholino]propanesulfonic acid (MOPS) (pH 7.5), 2 mM MnCl2, 20 μM ATP, 0.01% Tween-20, 0.1 mg/mL (BSA), 0.8 uM peptide substrate, and 1 mM dithiothreitol. The enzyme mix contained 100 mM MOPS (pH7.5); 0.01% Tween-20; 0.1 mg/mL BSA, and either 0.8 nM EGFR, 10 nM ErbB2, or 1 nM ErbB4
During the course of these studies, two separate methods have been used to measure the potency of compounds. In Method A, the substrate mix was added to the compound plates first, then the reaction was started by adding the enzyme mix. In Method B, the enzyme mix was added to the compound plates and the plates were incubated at 20° C. for 1 hour. The reactions were then started by adding the substrate mix.
After initiating the reaction with either method describe above, the reactions were allowed to proceed for 90 minutes at 20° C. The reactions were then terminated by the addition of 20 μl 100 mM EDTA to each well. 40 μl/well of HTRF detection mix were added to the assay plates. The final concentrations of the detection reagents were: 100 mM HEPES (pH7.5), 0.1 mg/mL BSA, 15 nM streptavidin-labeled allophycocyanin (PerkinElmer), and 1 nM europium-labeled anti-phosphotyrosine antibody (PerkinElmer). Assay plates were left unsealed and were counted in a Wallac Multilabel Counter 1420 (PerkinElmer).
Compounds under analysis were dissolved in Me2SO to 1.0 mM and serially diluted 1 to 3 with Me2SO through twelve dilutions. 1 μl of each concentration was transferred to the corresponding well of an assay plate. This creates a final compound concentration range from 0.00027 to 47.6 μM.
The data for dose responses were plotted as % Inhibition calculated with the data reduction formula 100*(1−(U1−C2)/(C1−C2)) versus concentration of compound where U is the unknown value, C1 is the average control value obtained for 4.76% DMSO, and C2 is the average control value obtained for 0.035 M EDTA. Data were fitted with a curve described by: y=((Vmax*x)/(K+x))+Y2 where Vmax is the upper asymptote, Y2 is the Y intercept, and K is the IC50. The results for each compound were recorded as pIC50s, calculated as follows: pIC50=−Log 10(K)

Structure (SMILES) | IC50 (Colo205 tumor cell lines) | IC50 [1] | Activity (Method) (ErbB2 or EGFR)
Cc1ccc(-c2nn3ccccc3c2-c2ccnc(Nc3cccc(OCCN(C)C)c3)n2)cc1NC(=O)Cc1cccs1 [Example 58, N-[5-(3-{2-[(3-{[2-(Dimethylamino)ethyl]oxy}phenyl)amino]-4-pyrimidinyl}pyrazolo[1,5-a]pyridin-2-yl)-2-methylphenyl]-2-(2-thienyl)acetamide] | 100 to 1000 nM | 100 to 1000 nM | ++ (B) (at least one pIC50 measurement greater than 6 against either ErbB2 or EGFR but no measurement greater than pIC50 of 7)
Cc1ccc2c(-c3ccnc(Nc4cccc(OCCN(C)C)c4)n3)c(-c3cccc(NC(=O)Cc4cccs4)c3)nn2c1 [Example 72, N-[3-(3-{2-[(3-{[2-(Dimethylamino)ethyl]oxy}phenyl)amino]-4-pyrimidinyl}-6-methylpyrazolo[1,5-a]pyridin-2-yl)phenyl]-2-(2-thienyl)acetamide] | – | – | +++ (B) (at least one pIC50 measurement of greater than 7 against either ErbB2 or EGFR)
COc1ccc2c(-c3ccnc(Nc4cccc(OCCN(C)C)c4)n3)c(-c3cccc(NC(=O)NCc4ccc(F)cc4)c3)nn2c1 [Example 70, N-{3-[3-{2-[(3-{[2-(Dimethylamino)ethyl]oxy}phenyl)amino]-4-pyrimidinyl}-6-(methyloxy)pyrazolo[1,5-a]pyridin-2-yl]phenyl}-N-[(4-fluorophenyl)methyl]urea] | – | – | +++ (B) (at least one pIC50 measurement of greater than 7 against either ErbB2 or EGFR)
Cc1ncoc1-c1cccc(Nc2nccc(-c3c(-c4cccc(NC(=O)Cc5cccs5)c4)nn4ccccc34)n2)c1 [Example 52, N-{3-[3-(2-{[3-(4-methyl-1,3-oxazol-5-yl)phenyl]amino}pyrimidin-4-yl)pyrazolo[1,5-a]pyridin-2-yl]phenyl}-2-(2-thienyl)acetamide] | 100 to 1000 nM | 100 to 1000 nM | –
CC(=O)N1CCN(c2ccc(Nc3nccc(-c4c(-c5cccc(NC(=O)Cc6cccs6)c5)nn5cc(C)ccc45)n3)cc2)CC1 [Example 73, N-{3-[3-(2-{[4-(4-Acetyl-1-piperazinyl)phenyl]amino}-4-pyrimidinyl)-6-methylpyrazolo[1,5-a]pyridin-2-yl]phenyl}-2-(2-thienyl)acetamide] | – | – | +++ (B) (at least one pIC50 measurement of greater than 7 against either ErbB2 or EGFR)
COc1ccc(-c2nn3ccccc3c2-c2ccnc(Nc3cccc(OCCN(C)C)c3)n2)cc1NC(=O)Cc1cccs1 [Example 65, N-[5-(3-{2-[(3-{[2-(Dimethylamino)ethyl]oxy}phenyl)amino]-4-pyrimidinyl}pyrazolo[1,5-a]pyridin-2-yl)-2-(methyloxy)phenyl]-2-(2-thienyl)acetamide] | – | – | + (B) (no pIC50 measurement greater than 6 against either ErbB2 or EGFR)
COc1ccc(-c2nn3ccccc3c2-c2ccnc(Nc3cc(OCCN(C)C)ccc3C)n2)cc1NC(=O)Cc1cccs1 [Example 66, N-[5-(3-{2-[(5-{[2-(Dimethylamino)ethyl]oxy}-2-methylphenyl)amino]-4-pyrimidinyl}pyrazolo[1,5-a]pyridin-2-yl)-2-(methyloxy)phenyl]-2-(2-thienyl)acetamide] | – | – | + (B) (no pIC50 measurement greater than 6 against either ErbB2 or EGFR)
CN1CCc2ccc(Nc3nccc(-c4c(-c5ccc(F)c(NC(=O)Cc6cccs6)c5)nn5ccccc45)n3)cc2C1 [Example 63, N-[2-Fluoro-5-(3-{2-[(2-methyl-1,2,3,4-tetrahydro-7-isoquinolinyl)amino]-4-pyrimidinyl}pyrazolo[1,5-a]pyridin-2-yl)phenyl]-2-(2-thienyl)acetamide] | – | – | +++ (B) (at least one pIC50 measurement of greater than 7 against either ErbB2 or EGFR)
Cc1ccc2c(-c3ccnc(Nc4cccc(CN5CCCC5)c4)n3)c(-c3cccc(NC(=O)Cc4cccs4)c3)nn2c1 [Example 71, N-{3-[6-Methyl-3-(2-{[3-(1-pyrrolidinylmethyl)phenyl]amino}-4-pyrimidinyl)pyrazolo[1,5-a]pyridin-2-yl]-phenyl}-2-(2-thienyl)acetamide] | – | – | +++ (B) (at least one pIC50 measurement of greater than 7 against either ErbB2 or EGFR)
COc1ccc(-c2nn3ccccc3c2-c2ccnc(Nc3cccc(OCCN(C)C)c3C)n2)cc1NC(=O)Cc1cccs1 [Example 64, N-[5-(3-{2-[(3-{[2-(Dimethylamino)ethyl]oxy}-2-methylphenyl)amino]-4-pyrimidinyl}pyrazolo[1,5-a]pyridin-2-yl)-2-(methyloxy)phenyl]-2-(2-thienyl)acetamide] | – | – | + (B) (no pIC50 measurement greater than 6 against either ErbB2 or EGFR)
CN1CCc2ccc(Nc3nccc(-c4c(-c5cccc(NC(=O)Cc6cccs6)c5)nn5ccccc45)n3)cc2C1 [Example 8] | – | – | +++ (B) (at least one pIC50 measurement of greater than 7 against either ErbB2 or EGFR)
COc1ccc2c(-c3ccnc(Nc4cccc(OCCN(C)C)c4)n3)c(-c3cccc(NC(=O)/C=C/c4ccccc4)c3)nn2c1 [Example 68, (2E)-N-{3-[3-{2-[(3-{[2-(Dimethylamino)ethyl]oxy}phenyl)amino]-4-pyrimidinyl}-6-(methyloxy)pyrazolo[1,5-a]pyridin-2-yl]phenyl}-3-phenyl-propenamide] | – | – | +++ (B) (at least one pIC50 measurement of greater than 7 against either ErbB2 or EGFR)
COc1ccc2c(-c3ccnc(Nc4cccc(OCCN(C)C)c4)n3)c(-c3cccc(NC(=O)C4(c5ccccc5)CC4)c3)nn2c1 [Example 67, N-{3-[3-{2-[(3-{[2-(Dimethylamino)ethyl]oxy}phenyl)amino]-4-pyrimidinyl}-6-(methyloxy)pyrazolo[1,5-a]pyridin-2-yl]phenyl}-1-phenylcyclopropanecarboxamide] | – | – | ++ (B) (at least one pIC50 measurement greater than 6 against either ErbB2 or EGFR but no measurement greater than pIC50 of 7)
Cc1c(Nc2nccc(-c3c(-c4ccc(F)c(NC(=O)Cc5cccs5)c4)nn4ccccc34)n2)cccc1OCCN(C)C [Example 60, N-[5-(3-{2-[(3-{[2-(Dimethylamino)ethyl]oxy}-2-methylphenyl)amino]-4-pyrimidinyl}pyrazolo[1,5-a]pyridin-2-yl)-2-fluorophenyl]-2-(2-thienyl)acetamide] | – | – | ++ (B) (at least one pIC50 measurement greater than 6 against either ErbB2 or EGFR but no measurement greater than pIC50 of 7)
